# Assay results reported in ChEMBL document CHEMBL1138436, “Biological activity and chemistry of taxoids from the Japanese yew, Taxus cuspidata” (J Nat Prod, 2004).
# What was measured:
# Format in all cases: functional
# [1] = Growth inhibition of human HBC4 cells
# [2] = Growth inhibition of human BSY1 cells
# [3] = Growth inhibition of human HBC5 cells
# MCF7 = assay: Growth inhibition of human MCF7 cells
# U-251 = assay: Growth inhibition of human U251 cells
# SF-268 = assay: Growth inhibition of human SF268 cells
# SF-295 = assay: Growth inhibition of human SF295 cells
# SF-539 = assay: Growth inhibition of human SF539 cells
# SNB-75 = assay: Growth inhibition of human SNB75 cells
# SNB-78 = assay: Growth inhibition of human SNB78 cells
# KM12 = assay: Growth inhibition of human KM12 cells
# HCT-15 = assay: Growth inhibition of human HCT15 cells
# HCT-116 = assay: Growth inhibition of human HCT116 cells
# NCI-H23 = assay: Growth inhibition of human NCI-H23 cells
# NCI-H522 = assay: Growth inhibition of human NCI-H522 cells
# NCI-H460 = assay: Growth inhibition of human NCI-H460 cells
# A549 = assay: Growth inhibition of human A549 cells
# LOX IMVI = assay: Growth inhibition of human LOXIMVI cells
# OVCAR-3 = assay: Growth inhibition of human OVCAR-3 cells
# OVCAR-4 = assay: Growth inhibition of human OVCAR4 cells
# OVCAR-5 = assay: Growth inhibition of human OVCAR5 cells
# SK-OV-3 = assay: Growth inhibition of human SKOV3 cells
# [4] = Growth inhibition of human RXF631L cells
# ACHN = assay: Growth inhibition of human ACHN cells
# St-4 = assay: Growth inhibition of human St-4 cells
# [5] = Growth inhibition of human MKN1 cells
# MKN-28 = assay: Growth inhibition of human MKN28 cells
# PC-3 = assay: Growth inhibition of human PC3 cells
# [6] = read-out: LC50 (the source's name)
# [7] = read-out: pLC50 (the source's name) (converted)
smiles,measurement,setting,value
CC(=O)O[C@H]1C[C@H]2OC[C@@]2(OC(C)=O)[C@H]2[C@H](OC(=O)c3ccccc3)[C@]3(O)C[C@H](O)C(C)=C([C@@H](O)[C@H](O)[C@]12C)C3(C)C [TAXUSPINE E],GI50,[1]; read-out: GI50,72 µM
same,CC50,[1]; [6],> 100 µM
same,TGI,[1]; read-out: TGI,> 100 µM
same,GI50,[1]; read-out: pGI50 (converted),72.4 µM
same,TGI,[1]; read-out: pTGI (converted),100 µM
same,GI50,"[2]; BSY-1, read-out: GI50",30 µM
same,CC50,"[2]; BSY-1, read-out: LC50 (the source's name)",> 100 µM
same,TGI,"[2]; BSY-1, read-out: TGI",> 100 µM
same,GI50,"[2]; BSY-1, read-out: pGI50 (converted)",30.2 µM
same,CC50,"[2]; BSY-1, read-out: pLC50 (the source's name) (converted)",100 µM
same,TGI,"[2]; BSY-1, read-out: pTGI (converted)",100 µM
same,GI50,[3]; read-out: GI50,25 µM
same,CC50,[3]; [6],> 100 µM
same,TGI,[3]; read-out: TGI,> 100 µM
same,GI50,[3]; read-out: pGI50 (converted),25.1 µM
same,TGI,[3]; read-out: pTGI (converted),100 µM
same,GI50,MCF7; read-out: GI50,24 µM
same,CC50,MCF7; [6],> 100 µM
same,TGI,MCF7; read-out: TGI,93 µM
same,GI50,MCF7; read-out: pGI50 (converted),24 µM
same,CC50,MCF7; [7],100 µM
same,TGI,MCF7; read-out: pTGI (converted),93.3 µM
same,TGI,U-251,> 100 µM
same,GI50,U-251; read-out: GI50,36 µM
same,CC50,U-251; [6],> 100 µM
same,GI50,U-251; read-out: pGI50 (converted),36.3 µM
same,TGI,SF-268,> 100 µM
same,GI50,SF-268; read-out: GI50,74 µM
same,CC50,SF-268; [6],> 100 µM
same,GI50,SF-268; read-out: pGI50 (converted),74.1 µM
same,CC50,SF-268; [7],100 µM
same,GI50,SF-295; read-out: GI50,21 µM
same,CC50,SF-295; [6],> 100 µM
same,TGI,SF-295; read-out: TGI,> 100 µM
same,GI50,SF-295; read-out: pGI50 (converted),21.4 µM
same,TGI,SF-295; read-out: pTGI (converted),100 µM
same,GI50,SF-539; read-out: GI50,45 µM
same,CC50,SF-539; [6],> 100 µM
same,TGI,SF-539; read-out: TGI,> 100 µM
same,GI50,SF-539; read-out: pGI50 (converted),44.7 µM
same,CC50,SF-539; [7],100 µM
same,TGI,SF-539; read-out: pTGI (converted),100 µM
same,GI50,SNB-75; read-out: GI50,9 µM
same,CC50,SNB-75; [6],100 µM
same,TGI,SNB-75; read-out: TGI,55 µM
same,GI50,SNB-75; read-out: pGI50 (converted),8.91 µM
same,CC50,SNB-75; [7],100 µM
same,TGI,SNB-75; read-out: pTGI (converted),55 µM
same,GI50,SNB-78; read-out: GI50,50 µM
same,CC50,SNB-78; [6],> 100 µM
same,TGI,SNB-78; read-out: TGI,> 100 µM
same,GI50,SNB-78; read-out: pGI50 (converted),50.1 µM
same,CC50,SNB-78; [7],100 µM
same,TGI,SNB-78; read-out: pTGI (converted),100 µM
same,GI50,KM12; read-out: GI50,42 µM
same,CC50,KM12; [6],100 µM
same,TGI,KM12; read-out: TGI,> 100 µM
same,GI50,KM12; read-out: pGI50 (converted),41.7 µM
same,CC50,KM12; [7],100 µM
same,TGI,KM12; read-out: pTGI (converted),100 µM
same,GI50,HCT-15; read-out: GI50,32 µM
same,CC50,HCT-15; [6],> 100 µM
same,TGI,HCT-15; read-out: TGI,> 100 µM
same,GI50,HCT-15; read-out: pGI50 (converted),32.4 µM
same,CC50,HCT-15; [7],100 µM
same,TGI,HCT-15; read-out: pTGI (converted),100 µM
same,TGI,HCT-116,> 100 µM
same,GI50,HCT-116; read-out: GI50,30 µM
same,CC50,HCT-116; [6],> 100 µM
same,GI50,HCT-116; read-out: pGI50 (converted),30.2 µM
same,CC50,HCT-116; [7],100 µM
same,GI50,NCI-H23; read-out: GI50,23 µM
same,CC50,NCI-H23; [6],100 µM
same,TGI,NCI-H23; read-out: TGI,69 µM
same,GI50,NCI-H23; read-out: pGI50 (converted),22.9 µM
same,CC50,NCI-H23; [7],100 µM
same,TGI,NCI-H23; read-out: pTGI (converted),69.2 µM
same,GI50,NCI-H522; read-out: GI50,15 µM
same,CC50,NCI-H522; [6],> 100 µM
same,TGI,NCI-H522; read-out: TGI,49 µM
same,GI50,NCI-H522; read-out: pGI50 (converted),15.1 µM
same,TGI,NCI-H522; read-out: pTGI (converted),49 µM
same,GI50,NCI-H460; read-out: GI50,36 µM
same,TGI,NCI-H460; read-out: TGI,> 100 µM
same,GI50,NCI-H460; read-out: pGI50 (converted),35.5 µM
same,TGI,NCI-H460; read-out: pTGI (converted),100 µM
same,GI50,A549; read-out: GI50,30 µM
same,CC50,A549; [6],100 µM
same,TGI,A549; read-out: TGI,> 100 µM
same,GI50,A549; read-out: pGI50 (converted),30.2 µM
same,CC50,A549; [7],100 µM
same,TGI,A549; read-out: pTGI (converted),100 µM
same,GI50,LOX IMVI; read-out: GI50,35 µM
same,CC50,LOX IMVI; [6],> 100 µM
same,TGI,LOX IMVI; read-out: TGI,> 100 µM
same,GI50,LOX IMVI; read-out: pGI50 (converted),34.7 µM
same,TGI,LOX IMVI; read-out: pTGI (converted),100 µM
same,GI50,OVCAR-3; read-out: GI50,21 µM
same,CC50,OVCAR-3; [6],> 100 µM
same,TGI,OVCAR-3; read-out: TGI,99 µM
same,GI50,OVCAR-3; read-out: pGI50 (converted),20.4 µM
same,CC50,OVCAR-3; [7],100 µM
same,TGI,OVCAR-3; read-out: pTGI (converted),100 µM
same,GI50,OVCAR-4; read-out: GI50,21 µM
same,CC50,OVCAR-4; [6],> 100 µM
same,TGI,OVCAR-4; read-out: TGI,> 100 µM
same,GI50,OVCAR-4; read-out: pGI50 (converted),21.4 µM
same,CC50,OVCAR-4; [7],100 µM
same,TGI,OVCAR-4; read-out: pTGI (converted),100 µM
same,GI50,OVCAR-5; read-out: GI50,48 µM
same,CC50,OVCAR-5; [6],> 100 µM
same,TGI,OVCAR-5; read-out: TGI,> 100 µM
same,GI50,OVCAR-5; read-out: pGI50 (converted),47.9 µM
same,CC50,OVCAR-5; [7],100 µM
same,TGI,OVCAR-5; read-out: pTGI (converted),100 µM
same,GI50,SK-OV-3; read-out: GI50,68 µM
same,CC50,SK-OV-3; [6],> 100 µM
same,TGI,SK-OV-3; read-out: TGI,100 µM
same,GI50,SK-OV-3; read-out: pGI50 (converted),69.2 µM
same,CC50,SK-OV-3; [7],100 µM
same,TGI,SK-OV-3; read-out: pTGI (converted),100 µM
same,TGI,[4]; RXF 631,> 100 µM
same,GI50,"[4]; RXF 631, read-out: GI50",25 µM
same,CC50,"[4]; RXF 631, read-out: LC50 (the source's name)",5100 µM
same,GI50,"[4]; RXF 631, read-out: pGI50 (converted)",24.5 µM
same,CC50,"[4]; RXF 631, read-out: pLC50 (the source's name) (converted)",100 µM
same,GI50,ACHN; read-out: GI50,28 µM
same,CC50,ACHN; [6],> 100 µM
same,TGI,ACHN; read-out: TGI,> 100 µM
same,GI50,ACHN; read-out: pGI50 (converted),28.2 µM
same,TGI,ACHN; read-out: pTGI (converted),100 µM
same,GI50,St-4; read-out: GI50,33 µM
same,CC50,St-4; [6],> 100 µM
same,TGI,St-4; read-out: TGI,> 100 µM
same,GI50,St-4; read-out: pGI50 (converted),33.1 µM
same,CC50,St-4; [7],100 µM
same,TGI,St-4; read-out: pTGI (converted),100 µM
same,GI50,"[5]; MKN-1, read-out: GI50",49 µM
same,CC50,"[5]; MKN-1, read-out: LC50 (the source's name)",> 100 µM
same,TGI,"[5]; MKN-1, read-out: TGI",> 100 µM
same,GI50,"[5]; MKN-1, read-out: pGI50 (converted)",49 µM
same,CC50,"[5]; MKN-1, read-out: pLC50 (the source's name) (converted)",100 µM
same,TGI,"[5]; MKN-1, read-out: pTGI (converted)",100 µM
same,GI50,MKN-28; read-out: GI50,31 µM
same,CC50,MKN-28; [6],> 100 µM
same,TGI,MKN-28; read-out: TGI,> 100 µM
same,GI50,MKN-28; read-out: pGI50 (converted),30.9 µM
same,CC50,MKN-28; [7],100 µM
same,TGI,MKN-28; read-out: pTGI (converted),100 µM
same,GI50,PC-3; read-out: GI50,20 µM
same,CC50,PC-3; [6],> 100 µM
same,TGI,PC-3; read-out: TGI,> 100 µM
same,GI50,PC-3; read-out: pGI50 (converted),20 µM
same,TGI,PC-3; read-out: pTGI (converted),100 µM
